Source: US20110217715A1, “GENE EXPRESSION IN DUCHENNE MUSCULAR DYSTROPHY” (CHILDREN'S HOSPITAL MEDICAL CENTER, priority 2008, published 2011)

Test system: mRNA expression in peripheral blood of individuals with DMD
Test: Whole-blood gene expression microarray: DMD administered prednisone or deflazacort vs DMD not administered steroid
Assay type: in vivo, human
Description: Fifteen ml of blood was collected from each individual into 6 PAXgene® Vacutainer® tubes (PreAnalytiX, Germany) by antecubital fossa venipuncture. PAXgene® tubes contain a proprietary reagent that immediately stabilizes RNA, thus reducing RNA degradation and minimizing gene expression changes following phlebotomy. The tubes were then inverted 20 times, then remained undisturbed for 2 h at room temperature (about 19° C. to about 22° C.), and then stored at -70° C. until processed. Total RNA was isolated using the Paxgene® blood RNA kit (PreAnalytiX, Germany) according to the manufacturers instructions. The RNA isolated is from all cells in whole blood. […] Sample labeling, hybridization to chips, and image scanning were performed using standard Affymetrix protocols. For each whole blood sample from control individuals and individuals with DMD, total RNA was labeled using the One-Cycle Target Labeling protocol and hybridized to the arrays. […] Double-stranded cDNA synthesis, biotin-labeled cRNA synthesis, and cRNA fragmentation were performed according to the Affymetrix GeneChip Eukaryotic Expression Analysis protocol. […] After hybridization, the array was washed and stained. […] After scanning the array, the raw probe level values for each probe were saved in Affymetrix.cel files. […] Statistical analyses, including t-test analyses, unsupervised hierarchical clustering, and principal component analyses were conducted using Genespring 7.2 software ([…]® 7, Silicon Genetics, Redwood City Calif.). […] Corrections for multiple comparisons used a Benjamini-Hochberg False Discovery Rate (FDR) of 0.05, disclosed in Tang et al., J Cereb Blood Flow Metab 26 (2006) 1089, which is expressly incorporated by reference herein in its entirety. […] Individuals with DMD were evaluated and had been diagnosed by a single board-certified pediatric neurologist. The diagnosis of DMD was based in part upon clinical history, examination findings, and selected muscle biopsies and was confirmed by molecular diagnostic testing. […] Sample processing and array hybridization, probe-level data analysis, and statistical analysis were identical to Example 1.

[1] = DMD administered deflazacort or prednisone vs not administered

Compound: CC(=O)OCC(=O)[C@@]12N=C(C)O[C@@H]1C[C@H]1[C@@H]3CCC4=CC(=O)C=C[C@]4(C)[C@H]3[C@@H](O)C[C@@]12C [deflazacort]
- expression levels of FKBP5 [1]: up-regulated
- expression levels of genes in the chondroitin sulfate biosynthesis pathway [1]: up-regulated
- expression levels of haptoglobin and CD163 nucleic acids [1]: up-regulated
- expression levels of lactotransferrin and lipocalin [1]: increased expression levels
- expression of KFL10 (individuals administered prednisone, deflazacort, or both vs DMD not administered any agent): up-regulated
